pEC50: −log10 of the molar value. Blank lines part the entries; values can stand above or below the compound they belong to. Starred links: 1 amine or outer side, 2 acyl side, 3 side chain; linkers in the order of their positions; H or OH if unused. Non-standard residues stand in square brackets, D forms with d. No end group written: not given here. γGlu = O=C(O)[C@H](CCC(=O)[*:2])N[*:1]
Columns and labels:
human CaSR = target: T1, human CaSR (Homo sapiens, UniProt P41180, E1011Q); experiment: Evaluation of CaSR agonist activity (Ca2+ fluorescence, hCaSR-transfected 293E cells); assay type: cell-based; details: 293E cells transfected with hCaSR/pcDNA3.1, Calcium 4 fluorescence, FLEX Station
T1 construct: expressed in transfected cells; host or cells: 293E cells (EBNA1-expressing HEK293, ATCC CRL-10852), transient transfection with Fugene6
T1 sequence (P41180 20-1078 E1011Q): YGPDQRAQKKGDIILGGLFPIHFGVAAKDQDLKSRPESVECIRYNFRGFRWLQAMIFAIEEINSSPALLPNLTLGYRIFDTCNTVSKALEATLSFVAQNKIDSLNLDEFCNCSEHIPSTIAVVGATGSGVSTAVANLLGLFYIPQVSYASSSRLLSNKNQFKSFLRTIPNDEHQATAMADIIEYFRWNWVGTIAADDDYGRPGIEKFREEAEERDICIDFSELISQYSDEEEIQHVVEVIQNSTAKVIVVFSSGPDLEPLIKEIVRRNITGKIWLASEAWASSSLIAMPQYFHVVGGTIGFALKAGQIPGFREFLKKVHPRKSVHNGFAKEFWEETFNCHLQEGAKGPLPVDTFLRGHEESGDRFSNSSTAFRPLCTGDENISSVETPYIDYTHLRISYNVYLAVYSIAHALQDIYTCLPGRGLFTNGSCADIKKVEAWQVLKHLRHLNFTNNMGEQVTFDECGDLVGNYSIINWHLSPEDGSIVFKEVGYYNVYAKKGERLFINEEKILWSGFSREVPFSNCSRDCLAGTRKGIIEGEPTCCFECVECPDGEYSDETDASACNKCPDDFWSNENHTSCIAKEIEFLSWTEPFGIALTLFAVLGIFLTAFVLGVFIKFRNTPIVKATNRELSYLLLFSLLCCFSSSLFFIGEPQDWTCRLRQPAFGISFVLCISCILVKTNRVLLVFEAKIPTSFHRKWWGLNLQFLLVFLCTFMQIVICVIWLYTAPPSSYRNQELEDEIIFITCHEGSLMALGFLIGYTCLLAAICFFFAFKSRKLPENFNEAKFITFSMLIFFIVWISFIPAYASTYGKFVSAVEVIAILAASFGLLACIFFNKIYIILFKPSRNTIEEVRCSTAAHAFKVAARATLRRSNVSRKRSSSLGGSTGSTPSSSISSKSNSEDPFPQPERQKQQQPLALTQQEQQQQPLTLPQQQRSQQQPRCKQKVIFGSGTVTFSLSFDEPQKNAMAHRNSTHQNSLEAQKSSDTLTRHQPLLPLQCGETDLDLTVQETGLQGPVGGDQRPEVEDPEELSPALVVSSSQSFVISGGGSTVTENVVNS
Procedure: 293E Cells (EBNA1-expresion HEK293 cells, ATCC No. CRL-10852) were cultivated in DMEN/Ham's-F12 (3.15/mL glucose-containing Dulbecco's modified Eagle medium, available from Nakaraitesk Company) supplemented with 10% fetal calf serum, in the presence of 200 μg/mL of G418 (available from Genetisin). The cultured cells were inoculated in F25 flask at a density of 3×10^6 cells/10 mL, the flask was allowed to stand over 24 hours in a CO2 incubator (5% CO2, 37° C.), and then the human CaSR-expression plasmid hCaSR/pcDNA3.1 was transformed or transfected with a reagent for transfection Fugene6 (available from Roche Company). The transfected plasmid was maintained in a CO2 incubator for 6 to 7 hours, then the cells were recovered using a 10% fetal calf serum-containing DMEM/Ham's-F12 and the cells were inoculated in each well of a poly-D-lysine coat 96-well plate (BD-Biocoat) at a density of 70,000 cells/well.
To each well of the 96-well plate, each test compound was dissolved in a 0.1% BSA-containing Assay Buffer in an amount of 50 μl/well, and then any change of the intensity of fluorescence was monitored over 3 minutes using FLEX Station (available from Molecular Devices Company).
Method for the Determination of EC50:
The difference (RFU (Max-Min)) between the maximum and minimum fluorescent intensities observed for each well before and after the addition of each specific test compound was determined by the automatic calculation using FLEX Station. The activity rate was calculated while the RFU (Max-Min) value observed when adding the compound at the maximum concentration was defined to be 100% and the RFU (Max-Min) value observed when using the 0.1% BSA-containing Assay Buffer free of any test compound was defined to be 0%, followed by subjecting the resulting data to the curve-fitting procedures using the spreadsheet software Xfit or Graph-Pad-Prism to thus determine the EC50 which was the concentration of the compound at the activity rate of 50%.
In addition, the same EC50-determining procedures used above were repeated except for using other dipeptides as Comparative Examples.

[1] = Quantitative sensory evaluation test of kokumi-imparting activity; assay type: in vivo, human; details: n=4; for Intensity of kokumi, Initial Taste: scale control 0, strong 3, very strong 5
Procedure: This quantitative sensory evaluation test was carried out according to the following procedures: The intensity of the kokumi-imparting activity observed for each test compound was determined as a value observed when blending 0.00001 to 0.5 g/dL of the corresponding test compound with the distilled water containing sodium glutamate (0.05 g/dL), inosinic acid monophosphate (0.05 g/dL), and sodium chloride (0.5 g/dL). […] The evaluation criteria are assumed to be as follows: control: 0 point; strong: 3 points; very strong: 5 points. Moreover, to clarify the criteria, the initial taste and the middle/after taste of γ-Glu-Val-Gly were set at 3.0 points, respectively. The scoring or rating was carried out using the method of line scale and more specifically, it was carried out by writing each corresponding score on a straight line on which points corresponding to −5˜0˜5 had been indicated. The panelists used in this test were defined to be persons who had been engaged in the development of seasonings for foods over not less than one year of the cumulative time period and who could judge that the difference in the titer between γ-Glu-Cys-Gly and γ-Glu-Val-Gly added to a solution having umami/salty taste is about 10 times (while confirming the ability of these persons at regular intervals). The evaluation was carried out at n (the number of panelists used)=4. The term “initial taste” means the taste which develops from 0 to 2 seconds after the sample is placed in the panelist's mouth, while the term “middle/after taste” means the taste which develops thereafter.
In addition, γ-Glu-Val-Gly, γ-Glu-Cys, γ-Glu-Val, γ-Glu-Ala and γ-Glu-Ser were likewise inspected for their kokumi-imparting effect according to the same procedures used above.

[2] = 0.2 g/dL in water with MSG 0.05, IMP 0.05, NaCl 0.5 g/dL
[3] = 0.01 g/dL in umami/salty solution
[4] = 0.01 g/dL in water with MSG 0.05, IMP 0.05, NaCl 0.5 g/dL
[5] = 0.001 g/dL in water with MSG 0.05, IMP 0.05, NaCl 0.5 g/dL, reference set at 3.0

- pEC50 (human CaSR): 6.68
Compound: CC[C@H](NC(=O)CC[C@H](N)C(=O)O)C(=O)O

- pEC50 (human CaSR): 4.81
Compound: CC(C)(NC(=O)CC[C@H](N)C(=O)O)C(=O)O [γ-Glu-Aib]

- pEC50 (human CaSR): 5.91
Compound: C[C@H](NC(=O)CC[C@H](N)C(=O)O)C(=O)O [γ-Glu-Ala]
- Sensory Evaluation Profile ([1]; 0.2 g/dL in umami/salty solution): Mainly the tastes similar to the sour
- Intensity of kokumi, Middle/After Taste [1, 2]: 4.3 points
- Intensity of kokumi, Initial Taste [1, 2]: 4.5 points

Compound: N[C@@H](CCC(=O)N[C@@H](CS)C(=O)O)C(=O)O [γ-Glu-Cys]
- pEC50 (human CaSR): 6.80
- Sensory Evaluation Profile [1, 3]: Mainly the middle and after tastes
- Intensity of kokumi, Middle/After Taste [1, 4]: 3.1 points
- Intensity of kokumi, Initial Taste [1, 4]: 3.1 points

- pEC50 (human CaSR): 5.36
Compound: CCCC[C@H](NC(=O)CC[C@H](N)C(=O)O)C(=O)O [γ-Glu-Nle, γ-L-glutamyl-L-norleucine]

- pEC50 (human CaSR): 4.96
Compound: N[C@@H](CCC(=O)N[C@@H](CO)C(=O)O)C(=O)O [γ-Glu-Ser]
- Intensity of kokumi, Middle/After Taste [1, 2]: 3.0 points
- Intensity of kokumi, Initial Taste [1, 2]: 3.6 points

- pEC50 (human CaSR): 5.16
Compound: C[C@@H](O)[C@H](NC(=O)CC[C@H](N)C(=O)O)C(=O)O [γ-Glu-Thr]

- pEC50 (human CaSR): 5.99
Compound: CC(C)[C@H](NC(=O)CC[C@H](N)C(=O)O)C(=O)O [γ-Glu-Val]
- Sensory Evaluation Profile [1, 3]: The after taste was quite weak.
- Intensity of kokumi, Middle/After Taste [1, 4]: 2.4 points
- Intensity of kokumi, Initial Taste [1, 4]: 3.1 points

- pEC50 (human CaSR): 5.51
Compound: CC(C)(C)[C@H](NC(=O)CC[C@H](N)C(=O)O)C(=O)O [γ-Glu-tLeu]

Compound: [γGlu]-Val-Gly
- Intensity of kokumi, Middle/After Taste [1, 5]: 3.0 points
- Intensity of kokumi, Initial Taste [1, 5]: 3.0 points

— patent publication US8541379B2 (Ajinomoto Co., Inc., priority 2009, dated 2013)
